# Results published in ChEMBL document CHEMBL1131709, “Acyl-CoA: cholesterol acyltransferase inhibitory activity of ginseng sapogenins, produced from the ginseng saponins” (Bioorg Med Chem Lett, 1999).
# Target: T1, Sterol O-acyltransferase 1 (Rattus norvegicus, UniProt O70536)
# T1 sequence (O70536 whole entry): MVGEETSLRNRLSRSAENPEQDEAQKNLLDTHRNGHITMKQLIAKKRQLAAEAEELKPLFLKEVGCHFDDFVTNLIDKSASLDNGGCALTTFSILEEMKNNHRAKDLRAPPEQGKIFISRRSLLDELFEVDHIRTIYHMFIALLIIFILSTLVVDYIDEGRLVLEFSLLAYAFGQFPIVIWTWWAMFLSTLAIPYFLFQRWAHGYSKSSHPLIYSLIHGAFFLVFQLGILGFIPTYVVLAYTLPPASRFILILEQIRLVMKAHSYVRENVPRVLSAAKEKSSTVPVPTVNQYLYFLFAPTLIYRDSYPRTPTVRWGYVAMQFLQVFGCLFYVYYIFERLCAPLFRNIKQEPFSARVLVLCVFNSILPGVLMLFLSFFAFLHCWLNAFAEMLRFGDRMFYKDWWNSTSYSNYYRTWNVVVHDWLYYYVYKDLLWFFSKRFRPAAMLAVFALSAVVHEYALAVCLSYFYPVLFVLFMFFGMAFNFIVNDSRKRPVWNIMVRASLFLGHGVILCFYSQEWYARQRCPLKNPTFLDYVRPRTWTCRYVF
# Test: In vitro inhibitory activity of compound was measured on rat liver Acyl coenzyme A:cholesterol acyltransferase
row,Compound,IC50
1,CC1(C)CCC[C@](C)(C2CC[C@]3(C)C2[C@H](O)CC2[C@@]4(C)CC[C@H](O)C(C)(C)C4CC[C@]23C)O1 (stereo partly drawn),55 µM
2,CC(C)=CCC[C@@](C)(O)[C@H]1CC[C@]2(C)[C@@H]1[C@H](O)C[C@@H]1[C@@]3(C)CC[C@H](O)C(C)(C)[C@@H]3CC[C@]12C,10 µM
3,CC(C)=CCC[C@](C)(O)C1CC[C@]2(C)C1[C@H](O)CC1[C@@]3(C)CC[C@H](O)C(C)(C)C3[C@@H](O)C[C@]12C (stereo partly drawn),24 µM
4,CC1(C)CCC[C@@](C)(C2CC[C@]3(C)C2[C@H](O)CC2[C@@]4(C)CC[C@H](O)C(C)(C)C4[C@@H](O)C[C@]23C)O1 (stereo partly drawn),28 µM
5,CC1(C)CCC[C@@](C)(C2CC[C@]3(C)C2[C@H](O)CC2[C@@]4(C)CC[C@H](O)C(C)(C)C4CC[C@]23C)O1 (stereo partly drawn),25 µM
6,CC(C)=CCC[C@@](C)(O)[C@H]1CC[C@]2(C)C1[C@H](O)C[C@@H]1[C@@]3(C)CC[C@H](O)C(C)(C)[C@@H]3[C@@H](O)C[C@]12C (stereo partly drawn),6 µM
7,CC(C)=CCC[C@](C)(O)[C@H]1CC[C@]2(C)[C@@H]1[C@H](O)C[C@@H]1[C@@]3(C)CC[C@H](O)C(C)(C)[C@@H]3CC[C@]12C,30 µM
8,CC1(C)CCC[C@](C)(C2CC[C@]3(C)C2[C@H](O)CC2[C@@]4(C)CC[C@H](O)C(C)(C)C4[C@@H](O)C[C@]23C)O1 (stereo partly drawn),12 µM
